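All cell lines were grown in 96-well plates and treated with compound for 48 hours. GI50 = concentration required for 50% inhibition of growth.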 Calls of active or inactive are those of the source. Rule as the data show it: active = GI50 up to about 1.1 µM and inactive = higher.

Common to all, as to test: DTP human tumour cell line panel, 48 h
Test [1] deals with SF-539.
Test [2] concerns OVCAR-5.
Test [3] concerns HCC 2998.
The test system of test [4] is SN12C.
In test [5] the test system is NCI-H460.
The test system of test [6] is MDA-MB-435.
In test [7] the test system is Malme-3M.
Test [8] deals with M14.
The subject of test [9] is OVCAR-4.
Test [10] relates to MOLT-4.
The test system of test [11] is HL-60.
Test [12] has as its system MDA-N.
Test [13] deals with NCI-H522.
Test [14] relates to TK-10.
Test [15] has as its system A549.
Test [16] relates to NCI-H23.
Test [17] deals with SNB-75.
For test [18], the system named is T47D.
Test [19] has as its system NCI/ADR-RES.
The test system of test [20] is BT-549.

Take `CCOC(=O)C(=O)N1C(C)=C(C(=O)OCC)CC(C(=O)OCC)=C1C`: the GI50 in [1], in [2], in test [3], in test [4], in [5] and in test [6] was > 100 µM (inactive) each time. Moreover, the GI50 in [7], in test [8], in test [9], in test [10], in test [11] and in [12] was > 100 µM (inactive) each time. Also, the GI50 is > 100 µM (inactive) in test [13]; > 100 µM (inactive) in test [14]; > 100 µM (inactive) in test [15]; > 100 µM (inactive) in test [16]; 26.7 µM (inactive) in test [17]; > 100 µM (inactive) in [18].
In the case of `Cc1ccc(Nc2nc3c(=O)n(C)c(=O)n(C)c3nc2Nc2ccc(C)cc2)cc1`, the GI50 in test [1] is 13.5 µM (inactive); in test [2], 16.4 µM (inactive); in test [3], 17.5 µM (inactive); in [4] it was 15.5 µM (inactive); in test [5] it was 28.8 µM (inactive); in [6] it was 12.1 µM (inactive). Also, the GI50 in test [7] was 14.9 µM (inactive); in test [9] it was 11.1 µM (inactive); in [10] it was 14.8 µM (inactive); in test [11], 9.66 µM (inactive); in [12], 11.3 µM (inactive); in test [13] it was 1.15 µM (inactive). Moreover, the GI50 in test [19] was 17.2 µM (inactive); in [14] it was 16.4 µM (inactive); in [15], 19.9 µM (inactive); in [16], 15.9 µM (inactive); in [17], 15.4 µM (inactive); in test [18], 15.5 µM (inactive).
For the molecule `O=c1[nH]nc(-c2ccccc2)n1/N=C/c1cccc([N+](=O)[O-])c1`, the GI50 in [1] is 30.1 µM (inactive); in test [2] it was > 100 µM (inactive); in test [3], > 100 µM (inactive); in test [4] it was > 100 µM (inactive); in test [5], 91.6 µM (inactive); in test [6] it was > 100 µM (inactive). The GI50 in test [7], in test [8], in [9], in [10], in test [11] and in [20] was > 100 µM (inactive) in each case. Also, the GI50 was 8.15 µM (inactive) in test [13]; 41.4 µM (inactive) in [19]; > 100 µM (inactive) in test [14]; > 100 µM (inactive) in test [15]; > 100 µM (inactive) in [16]; > 100 µM (inactive) in [17]. Moreover, in [18], the GI50 was > 100 µM (inactive).
Regarding `O/N=C\c1c(O)ccc2ccccc12`, the GI50 in test [1] was 44 µM (inactive); in [2], > 100 µM (inactive); in test [3] it was 31.7 µM (inactive); in [4] it was 38.3 µM (inactive); in [5] it was 44.7 µM (inactive); in [6] it was 65 µM (inactive). For the same molecule, the GI50 in test [7] is 12.6 µM (inactive); in [8], 68.2 µM (inactive); in [11], 14.7 µM (inactive); in test [12], 66.5 µM (inactive); in [19] it was 68.2 µM (inactive); in [14], 40.4 µM (inactive). Moreover, the GI50 in test [15] is 46.6 µM (inactive); in test [16], 83.6 µM (inactive); in [17], 41.8 µM (inactive); in test [18], 27.8 µM (inactive).
As for `CSc1n/c(=N\c2ccccc2)sn1-c1ccccc1`, the GI50 in [1] was 18.6 µM (inactive); in test [2] it was 17.3 µM (inactive); in test [3], 17.9 µM (inactive); in [4], 15.6 µM (inactive); in test [5] it was 4.79 µM (inactive); in test [7], 24.3 µM (inactive). The GI50 in test [8] is 10.7 µM (inactive); in test [9] it was 5.3 µM (inactive); in test [10] it was 11.2 µM (inactive); in test [11] it was 3.74 µM (inactive); in test [13] it was 2.71 µM (inactive); in test [14] it was 26.7 µM (inactive). In addition, the GI50 in test [15] is 16.6 µM (inactive); in test [16] it was 14.1 µM (inactive); in test [17], 27.2 µM (inactive).
Take `O=C(OC1C2OC(=O)c3cc(O)c(O)c(O)c3Oc3cc4c(c(O)c3O)-c3c(cc(O)c(O)c3O)C(=O)OCC3OC(O)C(OC(=O)c5cc(O)c(O)c(O)c5Oc5cc6c(c(O)c5O)-c5c(cc(O)c(O)c5O)C(=O)OC1C(COC6=O)OC2O)C(OC(=O)c1cc(O)c(O)c(O)c1)C3OC4=O)c1cc(O)c(O)c(O)c1` (stereo not given): the GI50 is 24.4 µM (inactive) in [1]; 40.1 µM (inactive) in test [2]; 26.7 µM (inactive) in test [4]; 3.52 µM (inactive) in test [5]; 21.4 µM (inactive) in test [6]; > 100 µM (inactive) in [7]. Further, the GI50 in [8] is 35.2 µM (inactive); in [9], 17.8 µM (inactive); in test [10], 3.46 µM (inactive); in test [11], 16.2 µM (inactive); in test [12] it was 21.2 µM (inactive); in test [19], 58.2 µM (inactive). In addition, the GI50 in [14] was 38.7 µM (inactive); in test [15], 10.8 µM (inactive); in test [16] it was 24.6 µM (inactive); in [18], > 100 µM (inactive).
For `CCOC(=O)/C(O)=C/c1cc(OC)cc(=O)o1`, the GI50 in test [1], in test [2], in [3], in [4], in test [5] and in test [7] was > 100 µM (inactive) each time. For the same molecule, the GI50 in test [8], in [9], in test [10], in [11], in test [13] and in test [14] was > 100 µM (inactive) each time. The GI50 in test [15], in test [16] and in test [17] was > 100 µM (inactive) each time.
With `O=C1OCC2(CO1)CC1C=CC2C1` (stereo not given), the GI50 in test [1], in test [2], in test [3], in test [4], in [5] and in [6] was > 100 µM (inactive) in each case. Further, the GI50 in test [7], in test [8], in [9], in test [10], in test [11] and in test [12] was > 100 µM (inactive) in each case. The GI50 in test [13], in test [19], in test [14], in [15], in test [16] and in test [18] was > 100 µM (inactive) in each case.
Take `COc1cc(Nc2nc3ccccc3n3cccc23)cc(OC)c1OC`: the GI50 in test [1], in test [2], in test [3], in [5], in [6] and in [7] was > 100 µM (inactive) each time. The GI50 in [8] was > 100 µM (inactive); in [10], > 100 µM (inactive); in [11] it was 47.8 µM (inactive); in test [20], 68.9 µM (inactive); in test [13], > 100 µM (inactive); in [19], > 100 µM (inactive). Also, the GI50 was 36.3 µM (inactive) in test [14], > 100 µM (inactive) in [15], 73.8 µM (inactive) in test [16] and 0.276 µM (active) in [18].
Consider `CC(NC1=NCCO1)c1cccc([N+](=O)[O-])c1` (stereo not given), for which the GI50 in test [1], in [2], in test [3], in test [4], in test [5] and in [6] was > 100 µM (inactive) throughout. Also, the GI50 in test [7] was > 100 µM (inactive); in test [8], > 100 µM (inactive); in [9], > 100 µM (inactive); in test [10], 88.7 µM (inactive); in test [11], > 100 µM (inactive); in [12] it was > 100 µM (inactive). Moreover, the GI50 in test [13], in test [19], in [14], in [15], in [16] and in test [17] was > 100 µM (inactive) throughout. The GI50 in [18] is > 100 µM (inactive).
Turning to `CC1=C(C(=O)Nc2cc(F)c(F)cc2F)C(c2ccc(N(C)C)cc2)C(C(=O)Nc2cc(F)c(F)cc2F)=C(C)N1`, the GI50 in [1] is 18.2 µM (inactive); in test [2], 32.5 µM (inactive); in test [3], 23.7 µM (inactive); in test [4], 30.1 µM (inactive); in [5] it was 30.3 µM (inactive); in test [7], 32.7 µM (inactive). In addition, the GI50 in test [8] was 31.3 µM (inactive); in test [9], 17.7 µM (inactive); in test [10] it was 15.4 µM (inactive); in test [11], 13.9 µM (inactive); in test [13], 19.8 µM (inactive); in [14] it was 32.7 µM (inactive). Further, the GI50 in [15] is 16.4 µM (inactive); in test [16], 20.9 µM (inactive); in [17], 21.5 µM (inactive).
Take `CC(C)C1COC(C(C)(C)C2=N[C@@H](C(C)C)CO2)=N1` (stereo not given in full): the GI50 in test [1], in [2], in test [3], in test [4], in [5] and in test [7] was > 100 µM (inactive) in each case. The GI50 in test [8], in [9], in test [10], in test [11], in test [13] and in test [14] was > 100 µM (inactive) in each case. Moreover, the GI50 in [15], in [16] and in [17] was > 100 µM (inactive) in each case.

(Values after ChEMBL document CHEMBL1201862, “PubChem BioAssay data set” (2004).)
